“And” between values parts separate entries of the source, which are not always exact repeats. Equal values may be shown once. “Also recorded” adds a separate entry of the source.
What was measured:
[1] = tested on: human prostate cancer cell line (DU-145); assay: Growth inhibitory activity assay (MTT assay), in vitro antiproliferative activity; format: cell-based; conditions: DU-145 cells; for % growth inhibition (mean ± SEM) / inhibition at 0.01 µg/mL / inhibition at 0.5 µg/mL / inhibition at 1 µg/mL / inhibition at 2 µg/mL / inhibition at 5 µg/mL: 48 hr; for antiproliferative activity (in words): 0.01-5.0 μg/ml; for inhibition at 0.01 µg/mL / inhibition at 0.5 µg/mL / inhibition at 1 µg/mL / inhibition at 2 µg/mL / inhibition at 5 µg/mL: Homo sapiens, DU-145, 48 h, read-out: % growth inhibition (mean ± SEM)
Experimental: 1) In Vitro Antiproliferative Activity Against Human Prostate Cancer Cell Line (DU-145)
Compounds were screened for antiproliferative activity on human prostate cell line DU-145 at National Centre of Human Genome Studies and Research. Panjab University, Chandigarh. All the compounds (10 to 16), Finasteride and starting material (9) were tested at five different concentrations: 0.01, 0.5, 1.0, 2.0, and 5.0 μg/ml. Finasteride was the positive control in this growth inhibitory assay.
Growth Inhibitory Activity Assay (MTT Assay)
We investigated the effect of newly synthesized compounds on cell growth inhibition using MTT assay. This assay quantifies the viable cells by observing the reduction of tetrazolium salt, MTT to formazan crystals by the live cells. Based on the absorbance of the cell sample after the test is carried out, cell viable can be measured [Loveland, B. E.; Jones, T. G.; Mackay. I. R.; Vaillant, F.; Wang, Z. X.; Hertzog, P. J. Biochem. International 1992, 27, 501 and Wright, S. A.; Thomas, L. N.; Douglas, R. C.; Lazier, C. B.; Rittmaster, R. S. J. Clin. Invest. 1996, 98, 2558]. Cells were cultured at a density of 5×10^3 cells/well in 96 well plates at 37° C. in 5.0% CO2 atmosphere and were allowed to attach for 24 hr. The cells were treated in triplicate with graded concentration of sample and reference drug Finasteride at 37° C. for 48 hr. A 20 μl aliquot of MTT solution was added directly to all the appropriate wells. Following 4 hr of incubation at […], the media was removed and formazan crystals, which results from the reduction of MTT by active cell were dissolved in 100 μl DMSO and vigorously mixed to dissolve the reacted dye. The absorbance of each well was read on Elisa plate reader (Merck) at 570 nm. The spectrometer was calibrated to zero absorbance using culture medium without cells. The relative cell viability (%) related to control well containing cell culture medium without drug was calculated by [A]test/[A]control×100. % Growth Inhibition=[OD]control−[OD]test/[OD]control×100 Results: […]

[2] = In vitro cytotoxicity using mouse macrophages (acute toxicity), MTT assay; format: cell-based; conditions: both sexes, Balb C; mouse macrophages, from linear equation of MTT data; read-out: LC50 (concentration lethal to 50% population of cells)
Experimental: (§1) All steroids were dissolved in ethanol and diluted to appropriate concentration: 0.01, 0.5, 1.0, 2.0, 5.0 μg/ml from the two stock solution of 1 mg/ml and […]. Stocks were maintained at room temperature.
(§2) […] Approximately 1 ml of Phosphate buffer saline preincubated at 37° C. was injected into cavity. The abdomen was lavaged for 10 min and fluid along with macrophages were taken out using a syringe into polypropylene tube. The phosphate solution was spun at 800 rpm for 5-10 min and cells were resuspended in 1 ml RPMI media. Cell number was counted using haemocytometer.
(§3) Cells (mouse macrophages) were plated at a density of 5×10^3 cells/well in 96 plate at 37° C. in 5% CO2. Cells were exposed in graded concentration of compounds at designated various concentration. Each concentration was tested in triplicate wells. After 48 hr fresh MTT 20 μl (1 mg/ml) was added directly to all the wells and culture was incubated for 4 hr at 37° C. During this incubation, MTT was converted into a water insoluble formazan complex by metabolic activity of viable cells. Formazan crystal were taken and dissolved in 100 μl of DMSO, which give light pink colour. The absorbance of each well was read on Elisa plate reader (Merck) at 570 nm. The spectrometer was calibrated to zero absorbance using culture medium without cells. The relative cell viability (%) related to control well containing cell culture medium without drug was calculated by [A]test/[A]control×100. % Cell Viability=[A]test/[A]control×100 [A]test=absorbance test sample [A]control=absorbance control sample Results: LC50: Concentration of the Compound in μg/ml (μm), Lethal to 50% Population of Cells.
(§4) The assay quantifies the viable cells, after […] incubation of cells with five different concentrations.

[3] = tested on: mouse macrophages (Balb C); assay: as above; format: cell-based
Experimental: as §1, §2, §3, §4

5α-reductase = assay: In vivo effect on serum testosterone level (5α-reductase inhibitory activity), ELISA; set-up: species or system Sprague Dawley rats; conditions: for Serum levels of Testosterone, T: Sprague Dawley male rats, intraperitoneal, Finasteride 40 mg/kg and equimolar dose of compounds, 6 hr after treatment; for effect on serum testosterone level (in words): rats, 6 hr post dose, compared to control
Experimental: Animals (Sprague Dawley male rats weighing 150-200 g) were divided into 3 groups; vehicle (control), Finasteride (standard), treated (test sample) and each group consist of 5 animals. Sprague Dawley rats were treated intraperitoneally with Finasteride 40 mg/kg and equimolar dose of compounds. After 6 hr of treatment, blood was withdrawn by cardiac puncture under diethyl ether anesthesia and serum was separated from cells by centrifugation. Plasma testosterone values were obtained by ELISA plate reader at […] and are given in ng/ml.
The aliquots of 50 μl of each of standards, control and unknown (serum samples) were added to Testosterone Antibody coated wells. 100 μl of HRP-testosterone conjugate was added to all the wells and the plates were shaken gently on a shaker for proper mixing of the reagents. Following 4 hr of incubation at 37° C., the incubation mixture was removed. The wells were washed with phosphate buffer for 5-6 times (200 μl each time), followed by addition of 100 μl of TMB/H2O2 substrate in each of the wells. The plates were further incubated at 37° C. for 20 minutes. At the end of incubation reaction was stopped by using 100 μl of 0.5 M H2SO4 as stopping reagent. The absorbance of each well was read on Elisa plate reader at 450 nm [Rassaie, M. J.; Kumari, G. L.; Pandey, P. K.; Gupta, N.; Kochupillai, N.; Grover, P. K. Steroids 1992, 57, 288 and Hosoda, H.; Yoshida, H.; Sakai, Y.; Miyairi, S.; Nambara, T. Chem. Pharm. Bull. 1980, 28, 3035]
Intact male rats (Sprague Dawley, 200-250 g) were used in the designed study in which various compounds were compared for in vivo 5α-reductase inhibitory potency, as judged by the their ability to attenuate the conversion of testosterone into dihydrotestosterone (DHT). […] The procedure measure T equally well, and method met all the requirement of precision, accuracy, sensitivity and selectivity.

[4] = both, Balb C, mouse, 48 h, 0.01 μg/ml
[5] = both, Balb C, mouse, 48 h, 0.5 μg/ml
[6] = both, Balb C, mouse, 48 h, 1 μg/ml
[7] = both, Balb C, mouse, 48 h, 2 μg/ml
[8] = both, Balb C, mouse, 48 h, 5 μg/ml

| SMILES | % growth inhibition (mean ± SEM) ([1]; 5.0 μg/ml) | antiproliferative activity (in words) [1] | inhibition at 0.01 µg/mL ([1]; 0.01 μg/ml) | inhibition at 0.5 µg/mL ([1]; 0.5 μg/ml) | inhibition at 1 µg/mL ([1]; 1.0 μg/ml) | inhibition at 2 µg/mL ([1]; 2.0 μg/ml) | inhibition at 5 µg/mL ([1]; 5.0 μg/ml) | CC50 at 48 h [2] | % viable Cells (mean ± SEM) [3, 4] | % viable Cells (mean ± SEM) [3, 5] | % viable Cells (mean ± SEM) [3, 6] | % viable Cells (mean ± SEM) [3, 7] | % viable Cells (mean ± SEM) [3, 8] | Serum levels of Testosterone, T (5α-reductase) | effect on serum testosterone level (in words) (5α-reductase) | other results |
| --- | --- | --- | --- | --- | --- | --- | --- | --- | --- | --- | --- | --- | --- | --- | --- | --- |
| C[C@]12CC[C@H](OC(=O)c3ccc(Cl)cc3)CC1=CC[C@@H]1[C@@H]2CC[C@]2(C)C(=NO)CC[C@@H]12 [Compound 10, 17-oximino-5-androsten-3β-yl 4-chlorobenzoate] | 84.47 ± 0.74% | relatively less activity than above compounds but still better than Finasteride | 43.4 ± 0.77% | 57.1 ± 5.96% | 64.9 ± 7.4% | 69.2 ± 7.48% | 81 to 84% | 24 µM | 88.22 ± 0.41% | 87.21 ± 0.46% | 77.40 ± 0.43% | 77.14 ± 0.21% | 73.149 ± 0.13% | 0.95 ng/mL | loss of activity |  |
| C[C@]12CC[C@H](OC(=O)c3ccc([N+](=O)[O-])cc3)CC1=CC[C@@H]1[C@@H]2CC[C@]2(C)C(=NO)CC[C@@H]12 [Compound 11, 17-oximino-5-androsten-3β-yl 4-nitrobenzoate] | 81.53 ± 1.79% | relatively less activity than above compounds but still better than Finasteride | 41.5 ± 0.71% | 60.5 ± 4.9% | 67.3 ± 3.7% | 74 ± 0.77% | 81 to 84% | 19.5 µM | 88.79 ± 0.19% | 86.50 ± 0.107% | 76.74 ± 0.107% | 76.30 ± 0.46% | 75.85 ± 0.259% | 1.01 ng/mL | loss of activity |  |
| Cc1ccc(C(=O)O[C@H]2CC[C@@]3(C)C(=CC[C@@H]4[C@@H]3CC[C@]3(C)C(=NO)CC[C@@H]43)C2)cc1 [Compound 12, 17-oximino-5-androsten-3β-yl 4-methylbenzoate] | 92.94 ± 0.13% | more potent than the reference Finasteride | 42.6 ± 2.21% | 63 ± 4.78% | 85 ± 3.99% | 89.5 ± 0.96% | > 90% | 22 µM | 79.39 ± 0.77% | 77.46 ± 0.75% | 73.03 ± 0.36% | 69.10 ± 0.84% | 65.26 ± 2.79% | 1.16 ng/mL | increased activity |  |
| C[C@]12CC[C@H](OC(=O)c3ccccc3)CC1=CC[C@@H]1[C@@H]2CC[C@]2(C)C(=NO)CC[C@@H]12 [Compound 13, 17-oximino-5-androsten-3β-yl benzoate] | 91.10 ± 2.10% | more potent than the reference Finasteride | 47 ± 1.67% | 48.9 ± 1.66% | 67.6 ± 1.62% | 85.9 ± 4.08% | > 90% | 89.4 µM |  |  |  |  |  | 1.05 ± 0.08 ng/mL and 1.05 ng/mL |  | % viable Cells (mean ± SEM) ([3]; mouse macrophages, 0.01 μg/ml): 87.71 ± 0.29%; % viable Cells (mean ± SEM) ([3]; mouse macrophages, 0.5 μg/ml): 84.74 ± 0.27%; % viable Cells (mean ± SEM) ([3]; mouse macrophages, 1.0 μg/ml): 83.61 ± 0.20%; % viable Cells (mean ± SEM) ([3]; mouse macrophages, 2.0 μg/ml): 83.85 ± 0.28%; % viable Cells (mean ± SEM) ([3]; mouse macrophages, 5.0 μg/ml): 82.99 ± 0.36%; toxicity to mouse macrophages (in words) ([3]; mouse macrophages, 0.01-5.0 μg/ml): non toxic to mouse macrophages |
| C[C@]12CC[C@H](O)CC1=CC[C@@H]1[C@@H]2CC[C@]2(C)C(=NO)CC[C@@H]12 [Parent Compound 9, 17-oximino-5-androsten-3β-ol] | Ni^a | not shown any significant inhibitory effect on cell proliferation; also recorded: not shown significant antiproliferative activity |  |  |  |  |  |  |  |  |  |  |  |  |  | % growth inhibition (mean ± SEM) ([1]; 0.01 μg/ml): Ni^a; % growth inhibition (mean ± SEM) ([1]; 0.5 μg/ml): Ni^a; % growth inhibition (mean ± SEM) ([1]; 1.0 μg/ml): Ni^a; % growth inhibition (mean ± SEM) ([1]; 2.0 μg/ml): Ni^a |

Source: patent US8435975B2, “Steroidal esters of 17-oximino-5-androsten-3beta-ol” (Council of Scientific & Industrial Research, priority 2007, dated 2013)
